Data set [1] deals with isolated ileal smooth muscle. Put plainly: Muscle tone of isolated ileal smooth muscle of guinea pigs, compound alone. As to conditions: Table 3, no histamine, X±s, n = 8; for Antispasmodic percentage (%): relative to tone before adding compound, 5 min; for Smooth muscle tone (g) After administration: 5 minutes after adding the drug. As to the method: (§1) The guinea pig was knocked unconscious with a wooden stick, and the abdomen was immediately dissected to separate the ileum about 15 cm in length. The contents of the intestinal segment were flushed with Tyrode's solution and placed in Tyrode's solution at a constant temperature of 37°C for later use, and oxygen was supplied simultaneously. The experimental intestinal tract (1 cm in length) was cut and placed into 20 ml of Tyrode's solution at a constant temperature of 37°C with a continuous oxygen supply. One end of the intestine was fixed on the ventilation hook and the other end was connected to the muscle tone transducer and led to the computer interface. The muscle tone value of the ileal smooth muscle was recorded with a BL system. The experiment was carried out after the intestinal segment contraction became stable.
After the ileum contraction curve stabilized, the tone values before adding the drug were recorded, then the drug or DMSO was added, and the average tone value of the ileum contraction curve at that point was recorded 5 minutes later. The operation was repeated 8 times. The antispasmodic percentage was calculated according to the following formula. Antispasmodic percentage =; (Tone value before adding subject compound−Tone value after adding subject compound)/(Tone value before adding subject compound) × 100% [formula]

Data set [2] is described as follows: Solubility in water, methanol and isopropanol. As to conditions: for solubility Isopropanol: in isopropanol.
Protocol: The solubility in water, methanol, and isopropanol of the compounds of the present disclosure and the comparative compounds were measured separately.
In another data set the test system is histamine. Put plainly: Muscle tone of isolated ileal smooth muscle of guinea pigs contracted with histamine. The note with it: Table 4; relative to tone after adding histamine; x±s, n = 8; 3 min. How it is done: as §1
(§2) After the ileal peristalsis curve stabilized, the tone values before adding the compound were recorded, and then 0.05 mL of histamine was added. […] The operation was repeated 8 times. The antispasmodic percentage was calculated using the following equation. Antispasmodic percentage; = (Tone value after adding histamine−Tone value after adding subject compound)/(Tone value after adding histamine) × 100% [formula]

For another data set, the system named is histamine-induced asthma. The data set can be described thus: Antiasthmatic effect on histamine-induced asthma in guinea pigs (latency period). Type of data set: in vivo. As to conditions: 1 mg/kg oral gavage, sixty minutes after administration; histamine hydrochloride spray; no asthma within 8 minutes counted as 8 minutes; X±s, n = 5. As to the method:
The guinea pigs were placed in a polymethyl methacrylate bell jar and a histamine hydrochloride solution was sprayed ultrasonically (0.8 mg/mL) for 40 seconds. The time point at which the guinea pigs developed asthma was recorded. The time of convulsion and fall was taken as the latency period. Guinea pigs with a latency period exceeding 180 seconds were not selected. […] The guinea pigs were administered by oral gavage at a dose of 2 mL/kg·bw. Sixty minutes after the administration, the guinea pigs were placed in bell jars, and histamine hydrochloride solution was sprayed under the same conditions as in the previous selection. The latency period for the onset of asthma was recorded. […] The results were processed statistically.

A short description of data set [3]: Accelerated stability test. The note with it: 40°C ± 2°C, relative humidity 75% ± 5%; for remaining at 730 h / remaining at 1460 h / remaining at 2190 h / remaining at 4380 h: storage 75% relative humidity, read-out: Content. The class given is physicochemical.
Data set [4] is described as follows: Muscle tone of isolated ileal smooth muscle of guinea pigs contracted with histamine. The note with it: Table 4; 3 minutes after adding 0.05 mL compound at maximum histamine contraction; x±s, n = 8. As to the method:
as §1, §2

The structures appear in SMILES notation. Converted amounts (≈) assume the structure as drawn.

On to `O=P(O)(O)OCCCN1CCC(=C2c3ccc(Cl)cc3CCc3cccnc32)CC1` [Compound III-7], for which the “Antispasmodic percentage (%)” value in data set [1] is recorded as 29.88±18.88%; with histamine it was 65.36±17.20%. Also, in data set [2], the “solubility Isopropanol” value turned out to be 22 mg/mL (≈ 49 mM). The “Post-administration latency period” value in the data set with histamine-induced asthma was determined as 382.57 ± 51.11 s.
Regarding `O=P(O)(O)OCCCCCN1CCC(=C2c3ccc(F)cc3CCc3cccnc32)CC1` [Compound III-14], in data set [3] (Month 0), the Content came to 99.6%, the Description entry is “White powder” and the Related substances came out at 0.03%. Besides, in data set [3] (Month 1), the Description result is recorded as “White powder”, the Related substances is on record as 0.06% and the remaining at 730 h was found to be 99.5%. Also, in data set [3] (Month 2), the Description entry was “White powder”, the Related substances is 0.11% and the remaining at 1460 h came to 99.5%. In data set [3] (Month 3), the Description entry is recorded as “White powder”, the Related substances is reported as 0.15% and the remaining at 2190 h came to 99.5%. Besides, in data set [3] (Month 6), the Description result is “White powder”, the Related substances stood at 0.32% and the remaining at 4380 h came out at 99.3%. Moreover, in data set [1], the “Smooth muscle tone (g) After administration” value (from here on “Smooth muscle tone”) was 1.18 ± 0.28 g and the “Antispasmodic percentage (%)” value came to 31.79±17.77%. In addition, the “Antispasmodic percentage (%)” value in the data set on histamine is listed as 66.07±19.34%. Also, the “Smooth muscle tone” value in data set [4] was 1.15 ± 0.22 g. Moreover, the “Post-administration latency period” value with histamine-induced asthma is 372.40 ± 50.33 s.
`O=P(O)(O)OCOCCCCN1CCC(=C2c3ccc(Cl)cc3CCc3cccnc32)CC1` [Compound III-18]: in data set [3] (Month 0), the Content is 99.7%, the Description result is “White powder” and the Related substances turned out to be 0.03%. In data set [3] (Month 1), the Description result is on record as “White powder”, the Related substances is given as 0.06% and the remaining at 730 h worked out at 99.6%. In data set [3] (Month 2), the Description entry is recorded as “White powder”, the Related substances is on record as 0.12% and the remaining at 1460 h was found to be 99.5%. In data set [3] (Month 3), the Description entry is “White powder”, the Related substances was found to be 0.16% and the remaining at 2190 h was found to be 99.5%. In addition, in data set [3] (Month 6), the Description entry is listed as “White powder”, the Related substances was determined as 0.34% and the remaining at 4380 h is 99.4%. For the same compound, in data set [1], the “Smooth muscle tone” value amounted to 1.13 ± 0.21 g and the “Antispasmodic percentage (%)” value is listed as 34.30±18.66%. In the data set on histamine, the “Antispasmodic percentage (%)” value is on record as 65.50±19.34%. Further, in data set [4], the “Smooth muscle tone” value stood at 1.18 ± 0.26 g. The “Post-administration latency period” value with histamine-induced asthma stood at 354.29 ± 50.81 s.
For `O=P(O)(O)OCN1CCC(=C2c3ccc(Cl)cc3CCc3cccnc32)CC1` [Compound IV-1], the “Smooth muscle tone” value is 1.18 ± 0.21 g in data set [1] and 1.20 ± 0.23 g in data set [4]. Further, the “Antispasmodic percentage (%)” value in data set [1] was found to be 30.99±19.20%; with histamine, 65.12±19.01%. Besides, in the data set with histamine-induced asthma, the “Post-administration latency period” value turned out to be 362.39 ± 48.40 s.
On to `O=P(O)(O)OCCN1CCC(=C2c3ccc(Cl)cc3CCc3cccnc32)CC1` [Compound IV-2], for which, in data set [3] (Month 0), the Content came out at 99.6%, the Description result is on record as “White powder” and the Related substances was 0.03%. For the same compound, in data set [3] (Month 1), the Description entry is on record as “White powder”, the Related substances came out at 0.05% and the remaining at 730 h is 99.6%. In addition, in data set [3] (Month 2), the Description result is “White powder”, the Related substances was 0.09% and the remaining at 1460 h worked out at 99.5%. Also, in data set [3] (Month 3), the Description result was “White powder”, the Related substances came to 0.13% and the remaining at 2190 h was 99.5%. In data set [3] (Month 6), the Description result is recorded as “White powder”, the Related substances was 0.26% and the remaining at 4380 h turned out to be 99.4%. Besides, in data set [1], the “Smooth muscle tone” value came to 1.19 ± 0.31 g and the “Antispasmodic percentage (%)” value stood at 33.14±18.39%. In the data set with histamine, the “Antispasmodic percentage (%)” value is on record as 65.56±19.28%. Also, in data set [4], the “Smooth muscle tone” value was 1.18 ± 0.19 g. Also, the “Post-administration latency period” value in the data set on histamine-induced asthma is 383.10 ± 50.33 s.
`O=P(O)(O)OCCCN1CCC(=C2c3ccc(Cl)cc3CCc3cccnc32)CC1` [Compound IV-3]: the “Antispasmodic percentage (%)” value came to 32.00±19.55% in data set [1] and 64.11±19.66% in the data set on histamine. The “solubility Isopropanol” value in data set [2] was 1 mg/mL (≈ 2.23 mM). In addition, in data set [2] (in methanol), the “solubility Methanol” value is 21 mg/mL (≈ 46.8 mM). The solubility in data set [2] (water) was 390 mg/mL (≈ 869 mM). Besides, in the data set on histamine-induced asthma, the “Post-administration latency period” value amounted to 375.50 ± 47.99 s.
For `O=P(O)(O)OCOCCN1CCC(=C2c3ccc(Cl)cc3CCc3cccnc32)CC1` [Compound IV-8], in data set [3] (Month 0), the Content is reported as 99.6%, the Description entry is “White powder” and the Related substances was 0.03%. Moreover, in data set [3] (Month 1), the Description entry is listed as “White powder”, the Related substances came out at 0.06% and the remaining at 730 h worked out at 99.6%. Also, in data set [3] (Month 2), the Description entry is on record as “White powder”, the Related substances turned out to be 0.09% and the remaining at 1460 h was found to be 99.5%. Also, in data set [3] (Month 3), the Description entry was “White powder”, the Related substances is 0.14% and the remaining at 2190 h was found to be 99.5%. For the same compound, in data set [3] (Month 6), the Description result was “White powder”, the Related substances is 0.28% and the remaining at 4380 h was 99.3%. In data set [1], the “Smooth muscle tone” value was found to be 1.19 ± 0.29 g and the “Antispasmodic percentage (%)” value was 30.81±18.93%. In addition, the “Antispasmodic percentage (%)” value in the data set on histamine is 65.50±19.11%. Also, in data set [4], the “Smooth muscle tone” value was found to be 1.19 ± 0.28 g. In the data set with histamine-induced asthma, the “Post-administration latency period” value is 360.12 ± 52.01 s.
For `O=P(O)(O)OCOCCCN1CCC(=C2c3ccc(Cl)cc3CCc3cccnc32)CC1` [Compound IV-9], in data set [3] (Month 0), the Content came to 99.7%, the Description result was “White powder” and the Related substances came out at 0.03%. Besides, in data set [3] (Month 1), the Description result is given as “White powder”, the Related substances amounted to 0.04% and the remaining at 730 h came out at 99.7%. Besides, in data set [3] (Month 2), the Description entry was “White powder”, the Related substances turned out to be 0.05% and the remaining at 1460 h was found to be 99.7%. Also, in data set [3] (Month 3), the Description entry is reported as “White powder”, the Related substances amounted to 0.06% and the remaining at 2190 h amounted to 99.7%. Besides, in data set [3] (Month 6), the Description result was “White powder”, the Related substances was 0.10% and the remaining at 4380 h is 99.6%. In addition, in data set [1], the “Smooth muscle tone” value came out at 1.17 ± 0.25 g and the “Antispasmodic percentage (%)” value turned out to be 32.75±19.48%. In the data set on histamine, the “Antispasmodic percentage (%)” value is on record as 65.89±19.76%. In addition, in data set [4], the “Smooth muscle tone” value came to 1.18 ± 0.29 g. Besides, the “Post-administration latency period” value in the data set on histamine-induced asthma came out at 361.82 ± 51.36 s.
Take `O=P(O)(O)OCOCCCCN1CCC(=C2c3ccc(Cl)cc3CCc3cccnc32)CC1` [Compound IV-10]: the “Smooth muscle tone” value was 1.19 ± 0.24 g in data set [1] and 1.20 ± 0.27 g in data set [4]. For the same compound, the “Antispasmodic percentage (%)” value turned out to be 30.41±20.04% in data set [1] and 65.31±19.57% in the data set with histamine. The “Post-administration latency period” value in the data set with histamine-induced asthma amounted to 365.28 ± 52.09 s.
`O=P(O)(O)OCOCCCCCN1CCC(=C2c3ccc(Cl)cc3CCc3cccnc32)CC1` [Compound IV-11]: the “Smooth muscle tone” value in data set [1] was 1.18 ± 0.31 g; in data set [4] it was 1.18 ± 0.28 g. In addition, the results for the “Antispasmodic percentage (%)” value (in data set [1]; in the data set with histamine) were 32.57±19.31% and 65.89±19.39%, respectively. The “Post-administration latency period” value in the data set with histamine-induced asthma came to 364.85 ± 51.11 s.
Regarding `Clc1ccc2c(c1)CCc1cccnc1C2=C1CCNCC1` [Desloratadine, desloratadine, reference compound], the “solubility Water” value in data set [2] (in water) is on record as “Practically insoluble”.

In general, solubility refers to the dissolved amount per volume that the medium holds. High values mean much dissolved substance, low ones little dissolved substance.

Values taken from patent publication EP4559923A1, “ANTIHISTAMINE COMPOUND, AND PREPARATION METHOD THEREFOR AND USE THEREOF” (HC Synthetic Pharmaceutical Co., Ltd., priority 2022, dated 2024).
